Laboratory results published in ChEMBL document CHEMBL1909046, “DrugMatrix in vitro pharmacology data”.

Target: Mitogen-activated protein kinase 3 (Homo sapiens, UniProt P27361)
Assay: DRUGMATRIX: Protein Serine/Threonine Kinase, ERK1 enzyme inhibition (substrate: Myelin Basic Protein)
Set-up: species or system Escherichia coli
Settings: Not Active = under 50% inhibition at 10 µM

Mitogen-activated protein kinase 3, sequence (P27361 whole entry): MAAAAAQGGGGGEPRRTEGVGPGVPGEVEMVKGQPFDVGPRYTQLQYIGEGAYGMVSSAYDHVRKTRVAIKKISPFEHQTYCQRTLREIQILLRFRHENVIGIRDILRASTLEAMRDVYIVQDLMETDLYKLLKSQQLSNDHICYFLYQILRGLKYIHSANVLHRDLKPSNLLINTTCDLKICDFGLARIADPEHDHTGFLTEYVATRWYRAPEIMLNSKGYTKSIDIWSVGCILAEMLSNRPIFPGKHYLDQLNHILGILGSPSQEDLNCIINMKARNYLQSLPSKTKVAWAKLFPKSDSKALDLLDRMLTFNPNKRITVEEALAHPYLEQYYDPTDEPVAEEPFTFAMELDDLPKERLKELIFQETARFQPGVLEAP

Compound	IC50
CCCCC(=O)N(Cc1ccc(-c2ccccc2-c2nnn[nH]2)cc1)[C@H](C(=O)O)C(C)C	Not Active
O=C(O)COc1ccc(C(=O)c2cccs2)c(Cl)c1Cl	Not Active
CN1[C@@H]2CC[C@H]1C[C@@H](OC(c1ccccc1)c1ccccc1)C2 [BENZTROPINE]	Not Active
C[C@@](Cc1ccc(O)c(O)c1)(NN)C(=O)O.O [CARBIDOPA]	Not Active
CN1CCN(C2=Nc3cc(Cl)ccc3Nc3ccccc32)CC1 [CLOZAPINE]	Not Active
CC(C)NC[C@@H](O)COc1cccc2ccccc12 [DEXPROPRANOLOL]	Not Active

Target: T1, Cholecystokinin receptor type A (Homo sapiens, UniProt P32238); also: in other assays of this panel Not Active means under 50% inhibition at 10 µM
T1 sequence (P32238 whole entry): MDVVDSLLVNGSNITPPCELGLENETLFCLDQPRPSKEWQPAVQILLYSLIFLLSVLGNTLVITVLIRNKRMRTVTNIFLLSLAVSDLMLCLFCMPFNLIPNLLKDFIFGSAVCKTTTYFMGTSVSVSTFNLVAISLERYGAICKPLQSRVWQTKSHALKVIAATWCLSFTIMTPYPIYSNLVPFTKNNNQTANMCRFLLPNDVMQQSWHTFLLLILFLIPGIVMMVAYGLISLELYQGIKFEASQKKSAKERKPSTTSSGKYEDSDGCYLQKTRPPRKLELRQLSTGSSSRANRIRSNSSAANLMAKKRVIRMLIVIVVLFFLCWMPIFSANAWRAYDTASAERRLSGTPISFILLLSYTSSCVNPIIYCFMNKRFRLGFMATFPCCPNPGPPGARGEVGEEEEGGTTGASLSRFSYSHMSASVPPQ
Assay: not given
Assay type: cell membranes, Membrane
Settings: 1321-n1

Compound	IC50
CCCCC(=O)N(Cc1ccc(-c2ccccc2-c2nnn[nH]2)cc1)[C@H](C(=O)O)C(C)C	Not Active
O=C(O)COc1ccc(C(=O)c2cccs2)c(Cl)c1Cl	Not Active
CN1[C@@H]2CC[C@H]1C[C@@H](OC(c1ccccc1)c1ccccc1)C2 [BENZTROPINE]	Not Active
C[C@@](Cc1ccc(O)c(O)c1)(NN)C(=O)O.O [CARBIDOPA]	Not Active
CN1CCN(C2=Nc3cc(Cl)ccc3Nc3ccccc32)CC1 [CLOZAPINE]	Not Active
CC(C)NC[C@@H](O)COc1cccc2ccccc12 [DEXPROPRANOLOL]	Not Active

Target: C-C chemokine receptor type 5 (Homo sapiens, UniProt P51681); also: in other assays of this panel Not Active means under 50% inhibition at 10 µM
Sequence (P51681 whole entry): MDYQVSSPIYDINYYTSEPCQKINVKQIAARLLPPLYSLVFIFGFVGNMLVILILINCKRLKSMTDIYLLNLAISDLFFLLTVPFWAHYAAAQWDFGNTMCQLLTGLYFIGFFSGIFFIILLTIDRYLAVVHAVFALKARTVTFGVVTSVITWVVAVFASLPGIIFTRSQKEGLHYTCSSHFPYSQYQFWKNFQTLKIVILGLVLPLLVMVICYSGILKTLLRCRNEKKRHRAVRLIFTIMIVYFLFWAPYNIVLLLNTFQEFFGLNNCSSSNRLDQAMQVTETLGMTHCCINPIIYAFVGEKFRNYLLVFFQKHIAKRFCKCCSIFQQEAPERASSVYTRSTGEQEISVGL
Assay: not given
Assay type: cell membranes, Membrane
Settings: hek293

Compound	IC50
CCCCC(=O)N(Cc1ccc(-c2ccccc2-c2nnn[nH]2)cc1)[C@H](C(=O)O)C(C)C	Not Active
O=C(O)COc1ccc(C(=O)c2cccs2)c(Cl)c1Cl	Not Active
CN1[C@@H]2CC[C@H]1C[C@@H](OC(c1ccccc1)c1ccccc1)C2 [BENZTROPINE]	Not Active
C[C@@](Cc1ccc(O)c(O)c1)(NN)C(=O)O.O [CARBIDOPA]	Not Active
CN1CCN(C2=Nc3cc(Cl)ccc3Nc3ccccc32)CC1 [CLOZAPINE]	Not Active
CC(C)NC[C@@H](O)COc1cccc2ccccc12 [DEXPROPRANOLOL]	Not Active

Target: T2, Interstitial collagenase (Homo sapiens, UniProt P03956);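 also: MMP-1 enzyme inhibition assay using a peptide substrate; in other assays of this panel Not Active means under 50% inhibition at 10 µM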
T2 sequence (P03956 whole entry): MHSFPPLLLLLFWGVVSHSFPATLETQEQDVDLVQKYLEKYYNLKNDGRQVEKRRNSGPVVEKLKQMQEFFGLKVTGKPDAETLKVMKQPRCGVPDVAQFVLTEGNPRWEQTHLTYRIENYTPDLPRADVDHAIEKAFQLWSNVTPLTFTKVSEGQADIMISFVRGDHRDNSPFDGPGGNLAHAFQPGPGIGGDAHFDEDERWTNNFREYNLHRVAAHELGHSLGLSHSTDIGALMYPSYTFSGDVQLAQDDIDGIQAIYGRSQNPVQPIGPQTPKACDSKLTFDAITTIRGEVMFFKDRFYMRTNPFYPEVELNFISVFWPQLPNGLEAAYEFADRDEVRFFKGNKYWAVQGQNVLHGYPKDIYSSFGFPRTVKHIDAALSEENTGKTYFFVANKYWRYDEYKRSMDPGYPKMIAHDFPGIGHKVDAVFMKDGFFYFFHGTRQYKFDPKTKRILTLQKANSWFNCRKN
Assay: biochemical
Assay type: tissue-based, Rheumatoid synovial fibroblasts
Settings: not given

Compound	IC50
CCCCC(=O)N(Cc1ccc(-c2ccccc2-c2nnn[nH]2)cc1)[C@H](C(=O)O)C(C)C	Not Active
O=C(O)COc1ccc(C(=O)c2cccs2)c(Cl)c1Cl	Not Active
CN1[C@@H]2CC[C@H]1C[C@@H](OC(c1ccccc1)c1ccccc1)C2 [BENZTROPINE]	Not Active
C[C@@](Cc1ccc(O)c(O)c1)(NN)C(=O)O.O [CARBIDOPA]	Not Active
CN1CCN(C2=Nc3cc(Cl)ccc3Nc3ccccc32)CC1 [CLOZAPINE]	Not Active
CC(C)NC[C@@H](O)COc1cccc2ccccc12 [DEXPROPRANOLOL]	Not Active

Target: T3, Alpha-2C adrenergic receptor (Homo sapiens, UniProt P18825)
T3 sequence (P18825 whole entry): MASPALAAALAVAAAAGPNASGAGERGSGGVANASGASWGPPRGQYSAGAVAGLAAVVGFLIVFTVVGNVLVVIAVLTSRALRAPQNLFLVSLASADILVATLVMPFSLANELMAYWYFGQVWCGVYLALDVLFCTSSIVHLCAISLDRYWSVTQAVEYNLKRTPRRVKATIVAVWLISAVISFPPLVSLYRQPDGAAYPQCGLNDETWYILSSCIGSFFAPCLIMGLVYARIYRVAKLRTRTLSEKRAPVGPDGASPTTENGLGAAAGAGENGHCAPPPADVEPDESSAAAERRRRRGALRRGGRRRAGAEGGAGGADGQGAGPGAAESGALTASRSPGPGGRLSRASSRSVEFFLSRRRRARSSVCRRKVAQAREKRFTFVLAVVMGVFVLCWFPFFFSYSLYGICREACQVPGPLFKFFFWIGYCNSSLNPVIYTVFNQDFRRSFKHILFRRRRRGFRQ
Assay: DRUGMATRIX: Adrenergic Alpha-2C radioligand binding (ligand: [3H] MK-912)
Assay type: cell membranes, Sf9, Membrane
Settings: sf9

Compound	IC50
CCCCC(=O)N(Cc1ccc(-c2ccccc2-c2nnn[nH]2)cc1)[C@H](C(=O)O)C(C)C	Not Active
O=C(O)COc1ccc(C(=O)c2cccs2)c(Cl)c1Cl	Not Active
C[C@@](Cc1ccc(O)c(O)c1)(NN)C(=O)O.O [CARBIDOPA]	Not Active
CC(C)NC[C@@H](O)COc1cccc2ccccc12 [DEXPROPRANOLOL]	Not Active

Target: 5-hydroxytryptamine receptor 2B (Homo sapiens, UniProt P41595); also: in other assays of this panel Not Active means under 50% inhibition at 10 µM
Sequence (P41595 whole entry): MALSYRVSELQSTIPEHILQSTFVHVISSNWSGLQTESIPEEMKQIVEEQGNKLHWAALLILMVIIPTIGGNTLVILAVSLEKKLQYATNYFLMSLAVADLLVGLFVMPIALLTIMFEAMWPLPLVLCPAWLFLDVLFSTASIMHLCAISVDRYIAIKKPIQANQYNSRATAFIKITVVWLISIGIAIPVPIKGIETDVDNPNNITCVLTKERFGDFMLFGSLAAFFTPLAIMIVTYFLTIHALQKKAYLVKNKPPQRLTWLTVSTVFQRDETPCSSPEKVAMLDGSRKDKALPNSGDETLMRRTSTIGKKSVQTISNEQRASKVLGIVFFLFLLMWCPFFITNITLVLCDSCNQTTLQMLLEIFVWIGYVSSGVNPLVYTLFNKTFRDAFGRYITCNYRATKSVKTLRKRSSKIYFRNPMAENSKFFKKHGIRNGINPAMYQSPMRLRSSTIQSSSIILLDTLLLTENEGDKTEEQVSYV
Assay: not given
Assay type: cell membranes, CHO-K1, Membrane
Settings: cho-k1

Compound	IC50
CCCCC(=O)N(Cc1ccc(-c2ccccc2-c2nnn[nH]2)cc1)[C@H](C(=O)O)C(C)C	Not Active
O=C(O)COc1ccc(C(=O)c2cccs2)c(Cl)c1Cl	Not Active
C[C@@](Cc1ccc(O)c(O)c1)(NN)C(=O)O.O [CARBIDOPA]	Not Active

Same assay, conditions: read-out: IC50

Compound	IC50 [nM]
CN1[C@@H]2CC[C@H]1C[C@@H](OC(c1ccccc1)c1ccccc1)C2 [BENZTROPINE]	200

Same assay, conditions: read-out: Ki

Compound	Ki [nM]
CN1[C@@H]2CC[C@H]1C[C@@H](OC(c1ccccc1)c1ccccc1)C2 [BENZTROPINE]	127

Target: T4, 5-hydroxytryptamine receptor 1A (Rattus norvegicus, UniProt P19327); also: in other assays of this panel Not Active means under 50% inhibition at 10 µM
T4 sequence (P19327 whole entry): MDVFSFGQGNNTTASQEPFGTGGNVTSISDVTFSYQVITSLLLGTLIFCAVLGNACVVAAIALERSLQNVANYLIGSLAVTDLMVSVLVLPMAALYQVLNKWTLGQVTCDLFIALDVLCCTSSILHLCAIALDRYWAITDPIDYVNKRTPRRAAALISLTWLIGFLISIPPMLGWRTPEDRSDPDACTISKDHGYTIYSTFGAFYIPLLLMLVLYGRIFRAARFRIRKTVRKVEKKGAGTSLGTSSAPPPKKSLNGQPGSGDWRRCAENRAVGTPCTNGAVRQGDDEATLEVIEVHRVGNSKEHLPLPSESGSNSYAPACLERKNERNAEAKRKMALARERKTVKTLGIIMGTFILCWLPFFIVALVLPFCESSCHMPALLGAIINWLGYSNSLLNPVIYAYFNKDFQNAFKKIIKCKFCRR
Assay: not given
Assay type: cell membranes, CHO-K1, Membrane
Settings: cho-k1

Compound	IC50
CCCCC(=O)N(Cc1ccc(-c2ccccc2-c2nnn[nH]2)cc1)[C@H](C(=O)O)C(C)C	Not Active
O=C(O)COc1ccc(C(=O)c2cccs2)c(Cl)c1Cl	Not Active
CN1[C@@H]2CC[C@H]1C[C@@H](OC(c1ccccc1)c1ccccc1)C2 [BENZTROPINE]	Not Active
C[C@@](Cc1ccc(O)c(O)c1)(NN)C(=O)O.O [CARBIDOPA]	Not Active
